Results from article PMC6346587, “Glucose 6-phosphate dehydrogenase 6-phosphogluconolactonase: characterization of the Plasmodium vivax enzyme and inhibitor studies” (Malaria Journal, 2019).

Key:
P. falciparum strains = conditions: cited from earlier work
[1] = cited from earlier work
hG6PD = target: T1, hG6PD (Homo sapiens, UniProt P11413); conditions: ellagic acid; read-out: IC50 for hG6PD; cited from earlier work
T1 construct: made in house

PfGluPho = target: T2, PfGluPho (Plasmodium falciparum, UniProt Q8IKU0); conditions: cited from earlier work
T2 construct: made in house
T2 sequence (Q8IKU0 1-910): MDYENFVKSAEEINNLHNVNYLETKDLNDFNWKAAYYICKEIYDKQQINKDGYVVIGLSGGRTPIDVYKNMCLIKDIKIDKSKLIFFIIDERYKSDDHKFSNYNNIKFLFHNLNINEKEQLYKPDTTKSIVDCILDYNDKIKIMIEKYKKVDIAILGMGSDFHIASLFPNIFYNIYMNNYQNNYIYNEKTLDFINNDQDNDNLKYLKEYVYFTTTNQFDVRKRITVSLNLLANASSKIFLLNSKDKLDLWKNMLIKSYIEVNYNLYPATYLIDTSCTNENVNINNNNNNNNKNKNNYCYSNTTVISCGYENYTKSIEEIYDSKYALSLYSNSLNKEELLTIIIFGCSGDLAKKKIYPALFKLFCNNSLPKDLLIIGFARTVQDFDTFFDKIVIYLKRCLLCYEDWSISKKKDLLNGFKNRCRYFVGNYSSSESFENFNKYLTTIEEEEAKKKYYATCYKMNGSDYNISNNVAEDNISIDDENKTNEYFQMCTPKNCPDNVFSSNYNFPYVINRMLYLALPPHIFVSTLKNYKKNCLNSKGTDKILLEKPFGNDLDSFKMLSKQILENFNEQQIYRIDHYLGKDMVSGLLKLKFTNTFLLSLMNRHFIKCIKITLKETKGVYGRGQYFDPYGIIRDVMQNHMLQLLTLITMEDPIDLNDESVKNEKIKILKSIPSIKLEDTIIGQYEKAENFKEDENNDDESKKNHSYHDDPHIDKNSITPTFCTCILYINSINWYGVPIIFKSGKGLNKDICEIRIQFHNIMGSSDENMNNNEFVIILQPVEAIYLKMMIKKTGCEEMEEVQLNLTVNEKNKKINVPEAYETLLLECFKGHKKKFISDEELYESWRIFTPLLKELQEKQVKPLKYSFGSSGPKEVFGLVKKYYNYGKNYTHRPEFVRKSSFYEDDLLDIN

[2] = test system: Plasmodium yoelii strain overproducing GSH; design: method as in PMID 23029306; conditions: cited from earlier work
PvG6PD = PvG6PD (Plasmodium vivax, UniProt A5K3M1); assay: PvG6PD enzyme inhibition assay (NADPH formation, absorbance 340 nm / fluorescence); type: biochemical; conditions: for Type of inhibition of PvG6PD: with respect to both G6P and NADP+
Experimental: The G6PD activity of PfGluPho variants was measured spectrophotometrically as described for the wt enzyme. Kinetic characterization of PvG6PD was performed using the same assay system at an Evolution 300 spectrophotometer (Thermo Scientific, Dreieich, Germany). In brief, the initial reduction of NADP^+ to NADPH by PvG6PD was monitored by measuring the absorbance at 340 nm. The 500 µL reaction mixture contained 200 µM NADP^+ and varying concentrations of PvG6PD in an assay buffer of 100 mM Tris–HCl, pH 8.0, 10 mM MgCl2, and 0.5 mM EDTA at 25 °C. The reaction was started by adding 800 µM G6P. The KM for NADP^+ was determined by titrating NADP^+ from 2 to 400 µM at 800 µM G6P; the KM for G6P was measured accordingly by titrating G6P from 2 to 1200 µM at 200 µM NADP^+. KM values were calculated using GraphPad Prism. Since the KM for G6P was considerably higher than the value measured for PfGluPho [14], a concentration of 800 µM G6P was defined as substrate saturation for PvG6PD.
To identify potential inhibitors of PvG6PD, compounds with already known effects on PfGluPho (ellagic acid and derivatives, ML304) were tested. Additionally, several compound libraries of the Helmholtz Center for Infection Research, Brunswick, were screened against PfGluPho using the high-throughput-compatible assay systems described in Preuss et al.. […] Based on structure-activity relationship studies, a set of new potential G6PD inhibitors (Fig. 8) was then synthesized and assessed. First, the IC50 values of the compounds were determined, followed by mechanistic characterization of the mode of action. To test for selectivity of the compounds, the IC50 values of the compounds on PvG6PD, PfGluPho, and hG6PD were determined in parallel.
All measurements were performed in 96-well plates, half area (Greiner Bio-One, Frickenhausen, Germany) using a Tecan Infinite M200 plate reader (Maennedorf, Switzerland). The compounds were dissolved in 100% DMSO and afterwards diluted in assay buffer to the required concentrations. Different compound concentrations were added to a mixture of enzyme and NADP^+ in assay buffer. Concentrations of substrates differed depending on the enzyme; an overview is given in the Additional file 4. The reaction was started by adding G6P, and the increase of NADPH was monitored by measuring the absorbance at 340 nm. To increase the sensitivity of the assay, some measurements were reproduced, detecting the fluorescence of NADPH at ex340/em460. […] A negative control containing no compound was defined as 0% inhibition; a positive control lacking the substrate G6P was defined as 100% inhibition. For evaluations using GraphPad Prism and Microsoft Excel, only a linear increase in absorbance/fluorescence was considered. For the mechanistic characterization of the compounds, either NADP^+ or G6P were titrated at different compound concentrations around the IC50, while keeping the second substrate in saturation. The initial slope was plotted as Michaelis–Menten curves and Lineweaver–Burk plots using GraphPad Prism; KM values and Vmax were calculated with GraphPad Prism software.

Chain of PvG6PD (A5K3M1 entry or part of it): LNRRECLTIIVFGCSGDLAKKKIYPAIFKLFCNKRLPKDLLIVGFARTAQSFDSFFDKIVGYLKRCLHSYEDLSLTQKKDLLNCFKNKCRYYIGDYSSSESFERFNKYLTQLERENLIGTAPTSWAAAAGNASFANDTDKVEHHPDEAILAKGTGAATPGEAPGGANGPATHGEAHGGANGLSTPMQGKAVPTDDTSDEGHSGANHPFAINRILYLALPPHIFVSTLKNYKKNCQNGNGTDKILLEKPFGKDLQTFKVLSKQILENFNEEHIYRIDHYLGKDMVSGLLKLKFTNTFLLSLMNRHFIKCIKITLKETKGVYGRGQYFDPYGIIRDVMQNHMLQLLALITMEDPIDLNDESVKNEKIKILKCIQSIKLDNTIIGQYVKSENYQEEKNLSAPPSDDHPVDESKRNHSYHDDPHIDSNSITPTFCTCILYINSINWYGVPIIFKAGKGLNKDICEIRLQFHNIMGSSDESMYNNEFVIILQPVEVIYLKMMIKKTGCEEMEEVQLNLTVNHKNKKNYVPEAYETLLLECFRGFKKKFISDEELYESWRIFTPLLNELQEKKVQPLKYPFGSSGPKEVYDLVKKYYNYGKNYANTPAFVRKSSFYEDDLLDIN
T1 sequence (P11413 whole entry): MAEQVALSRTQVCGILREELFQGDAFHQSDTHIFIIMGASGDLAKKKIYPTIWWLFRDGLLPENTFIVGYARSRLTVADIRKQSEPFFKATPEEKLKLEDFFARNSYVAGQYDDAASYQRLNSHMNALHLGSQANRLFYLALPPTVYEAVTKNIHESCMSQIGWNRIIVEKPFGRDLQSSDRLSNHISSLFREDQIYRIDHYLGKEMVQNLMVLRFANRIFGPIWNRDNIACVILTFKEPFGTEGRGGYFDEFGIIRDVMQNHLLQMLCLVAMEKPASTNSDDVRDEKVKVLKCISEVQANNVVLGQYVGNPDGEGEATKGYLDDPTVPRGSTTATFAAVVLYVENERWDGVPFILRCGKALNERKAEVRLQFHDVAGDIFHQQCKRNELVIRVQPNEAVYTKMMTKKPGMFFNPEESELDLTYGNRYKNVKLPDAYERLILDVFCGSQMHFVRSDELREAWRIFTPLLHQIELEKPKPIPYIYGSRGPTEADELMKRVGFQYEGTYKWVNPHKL

O=c1oc2c(O)c(O)cc3c(=O)oc4c(O)c(O)cc1c4c23 [ellagic acid]
Interaction with chloroquine, atovaquone, mefloquine, and artesunate (P. falciparum strains): synergistic effects | Haemolytic effects ([1]; mice): no observable haemolytic effects | Overall toxicity in mice ([1]; mouse, in vivo): low | IC50 (hG6PD): 102 ± 39 nM | IC50 (PfGluPho; ellagic acid, read-out: IC50 on PfGluPho): 77 ± 22 nM | Type of inhibition of PfGluPho (PfGluPho; with respect to both G6P and NADP+): mixed type inhibition | Sensitivity of GSH-overproducing P. yoelii strain versus wt [2]: five times less sensitive | IC50 (PvG6PD): 32.5 ± 13.4 nM | Type of inhibition of PvG6PD (PvG6PD): mixed type inhibitor | Type of inhibition of PvG6PD (PvG6PD; listed as EA): mixed type inhibition
